# Assay results taken from article PMC8286840, “Identifying SARS-CoV-2 antiviral compounds by screening for small molecule inhibitors of Nsp3 papain-like protease” (Biochemical Journal, 2021).
# Counter-ions that a name gives are not always drawn. Like-named read-outs stand apart in the source and are kept apart here.
# Tests used:
# [1] = biological target: T1, SARS-CoV-2 PLpro (nsp3 1564–1878) (Severe acute respiratory syndrome coronavirus 2, UniProt P0DTD1); assay: biochemical; set-up: FRET-quenched peptide (Pro3) cleavage by PLpro, 10 min pre-incubation, slope over 20 min, normalised to no-compound control; conditions: read-out: % of control remaining
# [2] = biological target: T1, SARS-CoV-2 PLpro (nsp3 1564–1878); assay: biochemical; set-up: FRET-quenched peptide (Pro3) cleavage by PLpro, 10 min pre-incubation, slope over 20 min, normalised to no-compound control; conditions: read-out: % of control remaining; remark: listed apart in the source
smiles,measurement,setting,value
CNCCC=C1c2ccccc2CCc2ccccc21 [Nortriptyline hydrochloride],remaining activity at 1.25 µM,"[1]; Well no.=1097, low concentration screen",95.3%
same,remaining activity at 3.75 µM,"[2]; Well no.=1097, high concentration screen",96.6%
CC(C)[C@H](CO)Nc1nc(Nc2ccc(C(=O)O)c(Cl)c2)c2ncn(C(C)C)c2n1 [Purvalanol B],remaining activity at 1.25 µM,"[1]; Well no.=2843, low concentration screen",96.5%
same,remaining activity at 3.75 µM,"[2]; Well no.=2843, high concentration screen",94.9%
CCCCCCCCCCCCC(=O)O [Tridecanoic acid],remaining activity at 1.25 µM,"[1]; Well no.=4260, low concentration screen",106%
same,remaining activity at 3.75 µM,"[2]; Well no.=4260, high concentration screen",98%
CCN(CC)CCNC(=O)c1ccc(N)cc1 [Procainamide hydrochloride],remaining activity at 1.25 µM,"[1]; Well no.=1307, low concentration screen",96.8%
same,remaining activity at 3.75 µM,"[2]; Well no.=1307, high concentration screen",98.9%
"CCCc1c(OCCCCc2nnn[nH]2)ccc(C(C)=O)c1O [LY-171,883]",remaining activity at 1.25 µM,"[1]; Well no.=835, low concentration screen",104%
same,remaining activity at 3.75 µM,"[2]; Well no.=835, high concentration screen",106%
c1ccc2c(Oc3nc(Nc4ccc(N5CCOCC5)cc4)c4ncn(C5CCCCC5)c4n3)cccc2c1 [9-cyclohexyl-N-[4-(4-morpholinyl)phenyl]-2-(1-naphthyloxy)-9H-purin-6-amine],remaining activity at 1.25 µM,"[1]; Well no.=5695, low concentration screen",98.5%
same,remaining activity at 3.75 µM,"[2]; Well no.=5695, high concentration screen",97.8%
NC(=O)c1ccc2[nH]ccc2c1 [SD169],remaining activity at 1.25 µM,"[1]; Well no.=2797, low concentration screen",106%
same,remaining activity at 3.75 µM,"[2]; Well no.=2797, high concentration screen",106%
Cc1oc(-c2ccccc2)nc1CCC(=O)c1ccc(CC2SC(=O)NC2=O)cc1 (centres unmarked) [Darglitazone sodium salt],remaining activity at 1.25 µM,"[1]; Well no.=5504, low concentration screen",90.6%
same,remaining activity at 3.75 µM,"[2]; Well no.=5504, high concentration screen",98%
CCN[C@H]1CO[C@@H](O[C@H]2[C@H](O[C@H]3C#C/C=C\C#C[C@]4(O)CC(=O)C(NC(=O)OC)=C3/C4=C/CSSSC)O[C@H](C)[C@@H](NO[C@H]3C[C@H](O)[C@H](SC(=O)c4c(C)c(I)c(O[C@@H]5O[C@@H](C)[C@H](O)[C@@H](OC)[C@H]5O)c(OC)c4OC)[C@@H](C)O3)[C@@H]2O)C[C@@H]1OC [Calicheamicin],remaining activity at 1.25 µM,"[1]; Well no.=7060, low concentration screen",94.4%
same,remaining activity at 3.75 µM,"[2]; Well no.=7060, high concentration screen",91.6%
COc1ccccc1CNCCCCCCNCCCCCCCCNCCCCCCNCc1ccccc1OC [Methoctramine tetrahydrochloride],remaining activity at 1.25 µM,"[1]; Well no.=1085, low concentration screen",102%
same,remaining activity at 3.75 µM,"[2]; Well no.=1085, high concentration screen",102%
O=C(O)c1cc(C(F)(F)F)ccc1N1CC[C@H](OCc2ccccn2)C1 [XEN445],remaining activity at 1.25 µM,"[1]; Well no.=8574, low concentration screen",105%
same,remaining activity at 3.75 µM,"[2]; Well no.=8574, high concentration screen",109%
C[N+]1(C)CCC[C@H]1C(=O)[O-] [Stachydrine hydrochloride],remaining activity at 1.25 µM,"[1]; Well no.=8032, low concentration screen",98.3%
same,remaining activity at 3.75 µM,"[2]; Well no.=8032, high concentration screen",96.9%
O=C(Nc1c[nH]nc1-c1nc2ccc(CN3CCOCC3)cc2[nH]1)NC1CC1 [AT9283],remaining activity at 1.25 µM,"[1]; Well no.=2884, low concentration screen",93.2%
same,remaining activity at 3.75 µM,"[2]; Well no.=2884, high concentration screen",95.8%
Cc1ccc(Sc2ccccc2N2CCNCC2)c(C)c1 [Vortioxetine],remaining activity at 1.25 µM,"[1]; Well no.=6269, low concentration screen",102%
same,remaining activity at 3.75 µM,"[2]; Well no.=6269, high concentration screen",102%
CNCC(O)c1ccc(O)cc1 (racemic),remaining activity at 1.25 µM,"[1]; Well no.=1356, low concentration screen",102%
same,remaining activity at 3.75 µM,"[2]; Well no.=1356, high concentration screen",104%
CC(=O)C(=O)O [Pyruvic acid],remaining activity at 1.25 µM,"[1]; Well no.=6683, low concentration screen",92.9%
same,remaining activity at 3.75 µM,"[2]; Well no.=6683, high concentration screen",94.5%
COc1cc2c(cc1OC)[C@H]1CC(=O)[C@H](CC(C)C)CN1CC2 (racemic) [Tetrabenazine (Racemate)],remaining activity at 1.25 µM,"[1]; Well no.=8692, low concentration screen",95.2%
same,remaining activity at 3.75 µM,"[2]; Well no.=8692, high concentration screen",93.1%
C[C@@H](O[C@H]1OCCN(Cc2nn(P(=O)(O)O)c(=O)[nH]2)[C@H]1c1ccc(F)cc1)c1cc(C(F)(F)F)cc(C(F)(F)F)c1 [Fosaprepitant (dimeglumine)],remaining activity at 1.25 µM,"[1]; Well no.=7483, low concentration screen",104%
same,remaining activity at 3.75 µM,"[2]; Well no.=7483, high concentration screen",97.1%
CCO[C@@H]1OC(=O)C[C@@H]1NC(=O)[C@@H]1CCCN1C(=O)[C@@H](NC(=O)c1ccc(N)c(Cl)c1)C(C)(C)C [Belnacasan],remaining activity at 1.25 µM,"[1]; Well no.=6502, low concentration screen",98%
same,remaining activity at 1.25 µM,"[1]; Well no.=8460, low concentration screen",103%
same,remaining activity at 3.75 µM,"[2]; Well no.=6502, high concentration screen",98.4%
same,remaining activity at 3.75 µM,"[2]; Well no.=8460, high concentration screen",110%
O=C(O)[C@@H]1C[C@@H](O)CN1 [L-Hydroxyproline],remaining activity at 1.25 µM,"[1]; Well no.=6735, low concentration screen",101%
same,remaining activity at 1.25 µM,"[1]; Well no.=8744, low concentration screen",94.2%
same,remaining activity at 3.75 µM,"[2]; Well no.=6735, high concentration screen",102%
same,remaining activity at 3.75 µM,"[2]; Well no.=8744, high concentration screen",91.4%
O=C1CCC(c2ccccc2)(C2CCN(Cc3ccccc3)CC2)C(=O)N1 (centres unmarked) [Benzetimide (hydrochloride)],remaining activity at 1.25 µM,[1],99.9%
same,remaining activity at 3.75 µM,[2],97.6%
Cc1cc(-c2ccc(N=Nc3c(S(=O)(=O)O)cc4cc(S(=O)(=O)O)cc(N)c4c3O)c(C)c2)ccc1N=Nc1c(S(=O)(=O)O)cc2cc(S(=O)(=O)O)cc(N)c2c1O [Diphenyl Blue],remaining activity at 1.25 µM,"[1]; Well no.=7598, low concentration screen",89.8%
same,remaining activity at 3.75 µM,"[2]; Well no.=7598, high concentration screen",89.2%
CNCCC[C@]12CC[C@H](c3ccccc31)c1ccccc12 [Maprotiline hydrochloride],remaining activity at 1.25 µM,"[1]; Well no.=845, low concentration screen",103%
same,remaining activity at 3.75 µM,"[2]; Well no.=845, high concentration screen",103%
CCCN1CCC[C@@H]2Cc3nc(N)ncc3C[C@H]21 [Quinelorane dihydrochloride],remaining activity at 1.25 µM,"[1]; Well no.=1413, low concentration screen",95.1%
same,remaining activity at 3.75 µM,"[2]; Well no.=1413, high concentration screen",98.2%
Cn1c(=O)c2[nH]cnc2n(C)c1=O [Aminophylline],remaining activity at 1.25 µM,"[1]; Well no.=1542, low concentration screen",101%
same,remaining activity at 3.75 µM,"[2]; Well no.=1542, high concentration screen",103%
CC(C)Cc1ccc(C(C)C(=O)O)cc1 (racemic),remaining activity at 1.25 µM,"[1]; Well no.=1011, low concentration screen",100%
same,remaining activity at 3.75 µM,"[2]; Well no.=1011, high concentration screen",99.6%
OC[C@@H](O)C(O)[C@H](O)CO [D-Arabitol],remaining activity at 1.25 µM,"[1]; Well no.=6501, low concentration screen",92.6%
same,remaining activity at 3.75 µM,"[2]; Well no.=6501, high concentration screen",93.2%
CC(C)NCC(O)COc1ccc(CC(N)=O)cc1 (racemic),remaining activity at 1.25 µM,"[1]; Well no.=196, low concentration screen",96.7%
same,remaining activity at 3.75 µM,"[2]; Well no.=196, high concentration screen",99.1%
CC(COc1ccccc1)N(CCCl)Cc1ccccc1 (centres unmarked) [Phenoxybenzamine hydrochloride],remaining activity at 1.25 µM,"[1]; Well no.=371, low concentration screen",95.1%
same,remaining activity at 3.75 µM,"[2]; Well no.=371, high concentration screen",91.2%
CO[C@@H](C(=O)N1Cc2[nH]nc(NC(=O)c3ccc(N4CCN(C)CC4)cc3)c2C1)c1ccccc1 [Danusertib (PHA-739358)],remaining activity at 1.25 µM,"[1]; Well no.=5045, low concentration screen",103%
same,remaining activity at 3.75 µM,"[2]; Well no.=5045, high concentration screen",106%
COc1cc2c(cc1OC)[C@H]1CC(=O)[C@H](CC(C)C)CN1CC2 [Tetrabenazine],remaining activity at 1.25 µM,"[1]; Well no.=7492, low concentration screen",94.6%
same,remaining activity at 3.75 µM,"[2]; Well no.=7492, high concentration screen",94.7%
"c1cnc2c(c1)ccc1cccnc12 [1,10-Phenanthroline monohydrate]",remaining activity at 1.25 µM,"[1]; Well no.=1259, low concentration screen",101%
same,remaining activity at 3.75 µM,"[2]; Well no.=1259, high concentration screen",101%
O=C(O)c1ccccn1 [PCL 016],remaining activity at 1.25 µM,"[1]; Well no.=7107, low concentration screen",99.9%
same,remaining activity at 3.75 µM,"[2]; Well no.=7107, high concentration screen",98.2%
CCCCC#Cc1nc(N)c2ncn([C@@H]3O[C@H](C(=O)NCC)[C@@H](O)[C@H]3O)c2n1 [HE-NECA],remaining activity at 1.25 µM,"[1]; Well no.=756, low concentration screen",97%
same,remaining activity at 3.75 µM,"[2]; Well no.=756, high concentration screen",98.5%
Cc1cc(Nc2cc(N3CCN(C)CC3)nc(/C=C/c3ccccc3)n2)n[nH]1 [ENMD-2076 L-(+)-Tartaric acid],remaining activity at 1.25 µM,"[1]; Well no.=5012, low concentration screen",101%
same,remaining activity at 3.75 µM,"[2]; Well no.=5012, high concentration screen",89.1%
